Experimental data as given in patent publication US20240182431A1, “NEW CONTRAST AGENT FOR USE IN MAGNETIC RESONANCE IMAGING” (Bayer Aktiengesellschaft, priority 2021, published 2024).

How the values were obtained:
OATP1B1 = biological target: T1, OATP1B1 (Homo sapiens, UniProt Q9Y6L6); assay: Uptake into stable transfected OATP1B1 HEK 293 cells; type: cell-based; conditions: for Uptake into OATP1B1-HEK 293 cells: 100 μM, 40 min, relative to RC1
T1 sequence (Q9Y6L6 1-691): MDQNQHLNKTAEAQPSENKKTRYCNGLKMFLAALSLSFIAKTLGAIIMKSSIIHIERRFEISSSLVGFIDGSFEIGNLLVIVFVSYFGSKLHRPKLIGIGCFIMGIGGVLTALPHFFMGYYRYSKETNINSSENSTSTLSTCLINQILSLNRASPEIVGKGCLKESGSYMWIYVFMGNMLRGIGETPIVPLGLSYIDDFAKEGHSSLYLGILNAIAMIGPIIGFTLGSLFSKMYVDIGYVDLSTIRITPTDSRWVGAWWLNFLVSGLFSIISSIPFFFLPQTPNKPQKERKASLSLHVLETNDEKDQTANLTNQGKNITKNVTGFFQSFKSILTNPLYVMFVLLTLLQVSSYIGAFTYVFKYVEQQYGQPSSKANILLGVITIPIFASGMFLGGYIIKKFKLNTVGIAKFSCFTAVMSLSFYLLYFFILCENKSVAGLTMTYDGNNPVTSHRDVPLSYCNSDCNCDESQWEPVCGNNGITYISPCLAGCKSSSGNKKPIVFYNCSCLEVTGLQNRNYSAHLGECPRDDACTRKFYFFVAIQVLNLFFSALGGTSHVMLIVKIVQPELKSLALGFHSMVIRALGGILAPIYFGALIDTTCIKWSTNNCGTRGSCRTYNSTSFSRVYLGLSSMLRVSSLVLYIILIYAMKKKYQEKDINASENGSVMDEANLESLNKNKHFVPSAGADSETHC
Method: Cryopreserved cells were shortly thawed in water bath and diluted in 10 mL warm culture medium (37° C.). After medium change the cells were grown for 3 d in a 25 cm^2 cell culture flask. After 3 to 5 d the cells were transferred into 75 cm^2 flasks. […] All test items were prepared in transport buffer at a final concentration of 100 μM from stock solutions (180 to 500 mM concentration). The OATP1B1 HEK 293 cells were incubated with test solutions (test item in transport buffer 500 μL) for 40 min on a thermoshaker without shaking (PHMP, Fa. Grant Bio). Triplicates were performed for each test item. After incubation the cells were washed with 2 mL of cold PBS (+) buffer (Dulbeccos PBS+, Fa. Gibco). The OATP1B1 HEK 293 cells were lysed by addition of 500 μL cold 0.01% Triton-X 100 in Millipore water for 1 h. […] After 1 h 500 μL of 1 nM Terbium ICP-MS standard was added in 2% nitric acid and 0.01% Triton 100.

[1] = Partition coefficient (logP butanol/buffer); type: physicochemical; conditions: 1-butanol / 50 mM Tris-HCl, pH 7.4, room temperature
[2] = cited from earlier work
[3] = 1.5 T, 37° C., from Rohrer et al., cited from earlier work; for r1 human plasma: bovine plasma instead of human plasma
[4] = Excretion study in rats (5 days) and residual gadolinium organ distribution (7 days); type: in vivo, rat; conditions: male rats, 0.1 mmol Gd/kg bw i.v.; for Σ organs and carcass: 7 d post injection
Method: The excretion and organ distribution of Example 1 and 15 were determined in male rats (Han-Wistar, n=3). The compound was administered as a sterile aqueous solution (50 mmol Gd/L) as a bolus in the tail vein of the animals. The dose was 0.1 mmol Gd/kg bw.
Urine was collected in the following time periods 0-1 h, 1-3 h, 3-6 h, 6-24 h, 1-2 d and 2-5 d post injection […] and feces 0-1 d, 1-2 d and 2-5 d post injection. As a control, 3 animals were treated in the same way with RC1. On day 7 the animals were sacrificed, and the following organs were excised: blood, liver, kidney, spleen, heart, lung, brain, muscle, skin, stomach, gut, bone and bone marrow. The remaining carcass was freeze dried and ground to a fine powder. The Gd concentration in the organs and the carcass was determined by ICP-MS (ICP-MS Agilent 7500a, Waldbronn, Germany). The compounds are excreted via dual pathway (liver and kidney). Less than 1% of the administered dose was present in the body 7 days after the injection.

OATP1B3 = biological target: T2, OATP1B3 (Homo sapiens, UniProt Q9NPD5); assay: Uptake into stable transfected OATP1B3 HEK 293 cells; type: cell-based
T2 sequence (Q9NPD5 1-702): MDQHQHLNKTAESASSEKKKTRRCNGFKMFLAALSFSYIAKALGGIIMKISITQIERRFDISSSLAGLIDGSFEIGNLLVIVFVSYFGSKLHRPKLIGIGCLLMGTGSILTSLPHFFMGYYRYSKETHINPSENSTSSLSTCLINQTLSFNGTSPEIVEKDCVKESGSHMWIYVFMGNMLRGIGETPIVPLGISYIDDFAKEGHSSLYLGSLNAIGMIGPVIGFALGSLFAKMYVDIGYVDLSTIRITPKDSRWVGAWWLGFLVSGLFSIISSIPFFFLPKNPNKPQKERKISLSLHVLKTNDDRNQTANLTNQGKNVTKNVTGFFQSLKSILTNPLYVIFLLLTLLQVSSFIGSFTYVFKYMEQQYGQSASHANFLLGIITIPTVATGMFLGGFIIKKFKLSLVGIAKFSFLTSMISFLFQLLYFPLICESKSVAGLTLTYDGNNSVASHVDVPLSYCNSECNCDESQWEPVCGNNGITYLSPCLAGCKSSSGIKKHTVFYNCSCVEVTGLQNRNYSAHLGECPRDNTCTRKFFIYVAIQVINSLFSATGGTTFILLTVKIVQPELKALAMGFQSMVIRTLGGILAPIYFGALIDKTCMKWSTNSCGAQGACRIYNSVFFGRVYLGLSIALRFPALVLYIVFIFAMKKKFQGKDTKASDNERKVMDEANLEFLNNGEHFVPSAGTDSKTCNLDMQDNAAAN

[5] = test system: freshly isolated rat hepatocytes; assay: Uptake into freshly isolated rat hepatocytes; type: cell-based
Method: After incubation the adherent hepatocytes were washed once with 37° C. Hepes carbonate transport buffer (500 μL/well). The test items and RC1 were prepared from stock solutions (180 to 500 mM concentration) in Hepes carbonate transport buffer at pH 7.4 to reach a final concentration of 100 μmol Gd/L. The specific uptake of the test item or RC1 into rat hepatocytes via OATP1B1 and OATP1B3 was challenged using a known OATP1B1/1B3 inhibitor (Rifampicine, Fa. Sigma R3501, test item and inhibitor 1:1 each 100 μM final concentration). The prepared rat hepatocyte plates were incubated with test solutions (500 μL/well) at 37° C. for 10 min using a thermoshaker (Fa. Grant Bio, PHMP). Triplicates were performed for each test item. After incubating the cells were washed once with cold PBS buffer (Fa. Gibco, Dulbeccos PBS (+)). After washing the intact hepatocytes were lysed by addition of 500 μL cold 0.01% Triton-X 100 in Millipore water for 1 h. […] As a reference standard RC1 is used in the same well plate. The hepatocyte uptake of the test compound is calculated relative to RC1 (resulting in the unit % of RC1).

[6] = Water solubility in aqueous buffer; type: physicochemical; conditions: aqueous buffer 10 mM Tris-HCl, pH 7.4, 20° C.
Method: The solid compounds were added stepwise to the buffer solution.
More substance is added once all the suspended material is dissolved until an equilibrium between undissolved and dissolved substance is reached. The suspension was mixed using a shaker (Heidolph Reax 2000) and treated 5 mn in an ultrasound bath (Bandelin, Sonorex Super RK255H).

[7] = Complex stability (transmetallation with Zn2+); type: physicochemical; conditions: 72 hours, 2.5 mM Zn^2+, 26 mM phosphate buffer, 37° C., pH 7.4
From the text: If test compounds are instable under these conditions, transmetallation during this test would lead to the formation of the Zn^2+ complex of the test item, while Gd^3+ is released and precipitated as highly insoluble GdPO4.

[8] = In vivo pharmacokinetics following i.v. administration in rat; conditions: i.v. bolus, dose 100 μmol/kg bw
Method: Pharmacokinetic parameters of Example 1 and 15 and were determined in male and female rats (Han-Wistar, n=4). […] The samples were digested using strong acidic and oxidizing conditions at elevated temperature following dilution in 1% nitric acid to bring the samples in the quantification range of the method. The lower limit of quantitation amounts to 1 nmol/L for all elements and the upper limit to 1000 nmol/L in the diluted sample.
The fit of the obtained data to a three-compartment model (Phoenix, WinNonlin 6.4, 3-compartment mode) yielded the pharmacokinetic parameters which are shown in Table 8.

[9] = Biliary elimination in bile duct cannulated rats; conditions: BDC rats, i.v. bolus
Method: All animals are initially anesthetized using a body weight-adjusted intramuscular injection of a mixture (1+2) of xylazine hydrochloride (20 mg/mL, Rompun 2%, Bayer Vital GmbH, Leverkusen) and ketamine hydrochloride (100 mg/mL, Ketavet, Pfizer, Pharmacia GmbH, Berlin) using 1 mL/kg body weight. The continuous anesthesia of the animals is achieved by the intravenous injection of 1.5 mL per hour (Braun perfusor infusion of 1+2, 1:20 saline, xylazine hydrochloride 20 mg/mL, Rompun 2%, Bayer Vital GmbH, Leverkusen and ketamine hydrochloride 100 mg/mL, Ketavet, Pfizer, Pharmacia GmbH, Berlin) via tail vein (Introcan, 24G, yellow). The animals received 0.1 mol Gd/kg bw as intravenous bolus injection via tail vein (50 mmol Gd/L formulation). Bile was sampled 0-0.5 h, 0.5-1 h, 1-2 h, 2-3 h und 3-4 h post injection. […] The bile fractions (n=3 times 10 μL) were dried for 2 h at 90° C. and 50 μL 65% nitric acid (HNO3, Fa. Fisher, Optima Grade #1219010) and 30 μL hydrogen peroxide 30% (H2O2 Fa VWR Chemicals, AnalaR NORMAPUR, #18J024022) were added and processed in microwave oven (5 cycles: 5 min 40 W, 5 min 120 W, 10 min 200 W, 10 min 320 W and 25 min 400 W, Fa. CEM, Mars5 Xpress).

| SMILES | Log P (butanol/buffer) [1] | r1 human plasma [3] [L/mmol/s] | Excretion Urine ([4]; 0-1 h post injection) [% Dose] | Excretion Feces ([4]; 0-1 d post injection) [% Dose] | Excretion Urine ([4]; 1-3 h post injection) [% Dose] | Excretion Feces ([4]; 1-2 d post injection) [% Dose] | Excretion Urine ([4]; 1-2 d post injection) [% Dose] | Excretion Feces ([4]; 2-5 d post injection) [% Dose] | Excretion Urine ([4]; 2-5 d post injection) [% Dose] | Excretion Urine ([4]; 3-6 h post injection) [% Dose] | Excretion Urine ([4]; 6-24 h post injection) [% Dose] | Σ organs and carcass [4] [% Dose] | Total recovery [4] [% Dose] | also measured |
| --- | --- | --- | --- | --- | --- | --- | --- | --- | --- | --- | --- | --- | --- | --- |
| CCOCCOCCOc1ccc(CCCC(C(=O)O)N2CCN(CC(=O)[O-])CCN(CC(=O)[O-])CCN(CC(=O)[O-])CC2)cc1.[Gd+3] (centres unmarked) [Example 25, gadolinium 2,2′,2″-{10-[1-carboxy-4-{4-[2-(2-ethoxyethoxy)ethoxy]phenyl}butyl]-1,4,7,10-tetraazacyclododecane-1,4,7-triyl}triacetate] | −1.00 |  |  |  |  |  |  |  |  |  |  |  |  | Uptake into OATP1B1-HEK 293 cells (OATP1B1): 301 % of RC1 |
| O=C([O-])CN(CCN(CC(=O)[O-])CC(=O)[O-])CCN(CC(=O)[O-])C(COCc1ccccc1)C(=O)[O-].[Gd+3].[H+].[H+] (centres unmarked) [Gd-BOPTA, gadobenic acid] |  |  |  |  |  |  |  |  |  |  |  |  |  | secreted into the bile ([2]; Seale et al. 2009): 3-to-5% |
| CCOc1ccc(C[C@@H](CN(CCN(CC(=O)[O-])CC(=O)[O-])CC(=O)[O-])N(CC(=O)[O-])CC(=O)[O-])cc1.[Gd+3].[H+].[H+] [Gd-EOB-DTPA, gadoxetic acid] |  |  |  |  |  |  |  |  |  |  |  |  |  | excreted into the bile ([2]; in vivo): up to 50 % of the administered dose |
| O=C([O-])CN(CCN(CC(=O)[O-])CC(=O)[O-])CCN(CC(=O)[O-])C(COCc1ccccc1)C(=O)[O-].[Gd+3] (centres unmarked) [RC2, Gd-BOPTA, reference compound] | −2.07 | 4.1 |  |  |  |  |  |  |  |  |  |  |  |  |
| CCOCCOCCOc1ccc(CCC[C@@H](C(=O)O)N2CCN([C@@H](CO)C(=O)[O-])CCN([C@@H](CO)C(=O)[O-])CCN([C@@H](CO)C(=O)[O-])CC2)cc1.[Gd+3] [Example 15, gadolinium (2S,2′S,2″S)-2,2′,2″-{10-[(1S)-1-carboxy-4-{4-[2-(2-ethoxyethoxy)ethoxy]phenyl}butyl]-1,4,7,10-tetraazacyclododecane-1,4,7-triyl}tris(3-hydroxypropanoate)] | −1.00 |  | 12.6 ± 11.1 | 78.6 ± 6.2 | 17.3 ± 3.4 | 80.0 ± 5.3 | 17.7 ± 3.3 | 80.0 ± 5.3 | 17.7 ± 3.3 | 17.4 ± 3.3 | 17.6 ± 3.3 | 0.11 ± 0.03 | 97.9 ± 5.4 |  |
| CCOc1ccc(C[C@@H](CN(CCN(CC(=O)[O-])CC(=O)[O-])CC(=O)[O-])N(CC(=O)[O-])CC(=O)[O-])cc1.[Gd+3].[H+].[H+] [RC1, Gd-EOB-DTPA] | −2.12 | 5.2 | 23.2 ± 1.6 | 77.5 ± 2.7 | 23.5 ± 1.5 | 80.6 ± 2.9 | 23.7 ± 1.5 | 80.8 ± 2.9 | 23.7 ± 1.5 | 23.6 ± 1.5 | 23.7 ± 1.5 | 0.14 ± 0.08 | 104.6 ± 2.4 | r1 water ([3]; water): 3.3 L/mmol/s; Uptake into OATP1B3-HEK 293 cells (OATP1B3; 100 μM, 40 min, relative to RC1): 100 % of RC1; Inhibition Rifampicine (OATP1B3; OATP1B3-HEK 293 cells): 99 % inhibition; Uptake rat hepatocytes ([5]; 100 μmol Gd/L, 10 min, 37° C., relative to RC1): 100 % of RC1; Inhibition Rifampicine ([5]; test item and Rifampicine 1:1 each 100 μM): 97 % inhibition; Solubility [6]: >250 mM; Uptake into OATP1B1-HEK 293 cells (OATP1B1): 100 % of RC1; Inhibition Rifampicine (OATP1B1; OATP1B1-HEK 293 cells): 81 % inhibition; Transmetallation stability [7]: 44%; AUCnorm Area under the curve [8]: 0.40 kg·h/L; Clplasma Plasma clearance [8]: 40 mL/min/kg; Vss Volume of distribution at steady state [8]: 0.9 L/kg; t½ α Half-life, compartment V1 [8]: 2 min; t½ β Half-life, compartment V2 [8]: 8 min; t½ γ Half-life, compartment V3 [8]: 390 min |
| O=C([O-])CN1CCN(CC(=O)[O-])CCN([C@H](CO)[C@H](O)CO)CCN(CC(=O)[O-])CC1.[Gd+3] (racemic) [RC3, gadobutrol, reference compound] | −2.22 | 5.2 |  |  |  |  |  |  |  |  |  |  |  |  |
| CCOc1ccc(CCOCC(C(=O)O)N2CCN(CC(=O)[O-])CCN(CC(=O)[O-])CCN(CC(=O)[O-])CC2)cc1.[Gd+3] (centres unmarked) [Example 1, gadolinium 2,2′,2″-(10-{1-carboxy-2-[2-(4-ethoxyphenyl)ethoxy]ethyl}-1,4,7,10-tetraazacyclododecane-1,4,7-triyl)triacetate] | −0.98 |  | 39.8 ± 6.8 | 55.6 ± 5.6 | 40.3 ± 6.8 | 56.9 ± 6.6 | 40.9 ± 7.4 | 57.0 ± 6.6 | 40.9 ± 7.4 | 40.3 ± 6.8 | 40.8 ± 7.4 | 0.65 ± 0.07 | 98.6 ± 2.1 | Biliary excretion, Mean ± SD (cumulative) ([9]; bile fraction 0-0.5 h): 55.5 ± 1.7% of injected dose; Biliary excretion, Mean ± SD (cumulative) ([9]; bile fraction 0.5-1 h): 62.6 ± 0.7% of injected dose; Biliary excretion, Mean ± SD (cumulative) ([9]; bile fraction 1-2 h): 65.1 ± 1.3% of injected dose; Biliary excretion, Mean ± SD (cumulative) ([9]; bile fraction 2-3 h): 65.6 ± 1.6% of injected dose; Biliary excretion, Mean ± SD (cumulative) ([9]; bile fraction 3-4 h): 65.8 ± 1.7% of injected dose |
